Assay results reported in ChEMBL document CHEMBL1212923, “Synthesis and in vivo evaluation of phenethylpiperazine amides: selective 5-hydroxytryptamine(2A) receptor antagonists for the treatment of insomnia” (J Med Chem, 2010).
Calls of active or inactive are those of the source. The rule behind the calls is not given here.

Key:
[1] = Total clearance in dog at 2 mg/kg, iv; format: ADME, organism-based, Canis lupus familiaris; set-up: dose 2 mg/kg, route intravenous; details: in vivo
[2] = Cmax in Sprague-Dawley rat at 10 mg/kg, po; format: ADME, organism-based; set-up: dose 10 mg/kg, route oral; details: in vivo
[3] = Toxicity in rat assessed as maximum tolerated dose; format: organism-based; details: in vivo
[4] = target: 5-hydroxytryptamine receptor 2A (Canis lupus familiaris, UniProt O46635); assay: Binding affinity to dog 5HT2A receptor
[5] = Protein binding in rat plasma; format: ADME, cell-free; details: read-out: PPB (converted)
[6] = Oral bioavailability in monkey at 3 mg/kg relative to 2 mg/kg, iv dose; format: ADME, organism-based, Macaca mulatta; details: rhesus monkey, in vivo
Cytochrome P450 2C19 = Cytochrome P450 2C19 (Homo sapiens, UniProt P33261); assay: Inhibition of CYP2C19 in human liver microsomes; format: ADME, Microsome
[7] = Ratio of drug level in brain to plasma in Sprague-Dawley rat at 0.3 mg/kg, po after 0.75 hrs; format: ADME, organism-based; set-up: dose 0.3 mg/kg, route oral
[8] = Oral bioavailability in Sprague-Dawley rat at 3 mg/kg relative to 2 mg/kg, iv dose; format: ADME, organism-based; details: in vivo
[9] = Half life in dog at 3 mg/kg, po; format: ADME, organism-based, Canis lupus familiaris; set-up: dose 3 mg/kg, route oral; details: in vivo
Cytochrome P450 2C9 = Cytochrome P450 2C9 (Homo sapiens, UniProt P11712); assay: Inhibition of CYP2C9 in human liver microsomes; format: ADME, Microsome
Cytochrome P450 3A4 = Cytochrome P450 3A4 (Homo sapiens, UniProt P08684); assay: Inhibition of CYP3A4 in human liver microsomes; format: ADME, Microsome
[10] = target: Voltage-gated inwardly rectifying potassium channel KCNH2 (Homo sapiens, UniProt Q12809)
Description: Inhibition of human ERG by patch clamp electrophysiology assay

Rattus norvegicus [11] = assay: Inhibition of DOI-induced hypolocomotion in Sprague-Dawley rat at 0.3 mg/kg, po administered 25 mins before DOI challenge measured after 10 mins; format: functional, organism-based; set-up: dose 0.3 mg/kg
Mus musculus [12] = assay: Volume of distribution at steady state in mouse at 3 mg/kg, po; format: ADME, organism-based; set-up: dose 3 mg/kg, route oral; details: in vivo
Rattus norvegicus [13] = assay: Effect on behavioral activity in po dosed Sprague-Dawley rat assessed as increase in sleep consolidation after 5 hrs; format: functional, organism-based
[14] = Half life in Sprague-Dawley rat at 3 mg/kg, po; format: ADME, organism-based; set-up: dose 3 mg/kg, route oral; details: in vivo
Rattus norvegicus [15] = assay: Effect on behavioral activity in Sprague-Dawley rat assessed as increase in deep sleep at 0.1 mg/kg, po after 1 hr; format: functional, organism-based; set-up: dose 0.1 mg/kg
[16] = Total clearance in mouse at 2 mg/kg, iv; format: ADME, organism-based; set-up: dose 2 mg/kg, route intravenous; details: in vivo
[17] = Half life in mouse at 3 mg/kg, po; format: ADME, organism-based; set-up: dose 3 mg/kg, route oral; details: in vivo
[18] = target: 5-hydroxytryptamine receptor 2A (Macaca mulatta, UniProt P50128); assay: Binding affinity to monkey 5HT2A receptor
Cytochrome P450 2D6 = Cytochrome P450 2D6 (Homo sapiens, UniProt P10635); assay: Inhibition of CYP2D6 in human liver microsomes; format: ADME, Microsome
[19] = Oral bioavailability in mouse at 3 mg/kg relative to 2 mg/kg, iv dose; format: ADME, organism-based; details: in vivo
[20] = Drug level in Sprague-Dawley rat brain at 0.3 mg/kg, po after 0.75 hrs; format: ADME, organism-based; set-up: dose 0.3 mg/kg, route oral; details: read-out: Drug uptake
[21] = AUClast in dog at 3 mg/kg, po; format: ADME, organism-based, Canis lupus familiaris; set-up: dose 3 mg/kg, route oral, time 0 - last; details: plasma
[22] = target: 5-hydroxytryptamine receptor 2A (Homo sapiens, UniProt P28223); assay: biochemical
Description: Displacement of [125I]DOI from human recombinant 5HT2A receptor expressed in HEK293 cells after 1 hr by scintillation counting

[23] = Total clearance in monkey at 2 mg/kg, iv; format: ADME, organism-based, Macaca mulatta; set-up: dose 2 mg/kg, route intravenous; details: rhesus monkey, in vivo
Canis familiaris [24] = assay: Cardiotoxicity in telemeterized dog assessed as change in ECG parameter at 10 to 30 mg/kg; format: toxicity, organism-based, Canis lupus familiaris; set-up: dose 10-30 mg/kg; details: in vivo
[25] = target: 5-hydroxytryptamine receptor 2A (Rattus norvegicus, UniProt P14842); assay: Binding affinity to rat 5HT2A receptor
Rattus norvegicus [26] = assay: Effect on behavioral activity in Sprague-Dawley rat assessed as increase in deep sleep at 0.1 mg/kg, po after 3 to 4 hrs; format: functional, organism-based; set-up: dose 0.1 mg/kg
Rattus norvegicus [27] = assay: Toxicity in telemeterized rats assessed as effect on hemodynamics at 10 to 30 mg/kg; format: organism-based; set-up: dose 10-30 mg/kg; details: in vivo
Rattus norvegicus [28] = assay: Toxicity in rat assessed as reduction in locomotor activity at 300 mg/kg by rotarod test; format: organism-based; set-up: dose 300 mg/kg; details: in vivo
[29] = Toxicity in mouse assessed as maximum tolerated dose; format: organism-based; details: in vivo
[30] = Total clearance in Sprague-Dawley rat at 2 mg/kg, iv; format: ADME, organism-based; set-up: dose 2 mg/kg, route intravenous; details: in vivo
Cytochrome P450 1A2 = target: T1, Cytochrome P450 1A2 (Homo sapiens, UniProt P05177); assay: Inhibition of CYP1A2 in human liver microsomes; format: ADME, Microsome
T1 sequence (P05177 whole entry): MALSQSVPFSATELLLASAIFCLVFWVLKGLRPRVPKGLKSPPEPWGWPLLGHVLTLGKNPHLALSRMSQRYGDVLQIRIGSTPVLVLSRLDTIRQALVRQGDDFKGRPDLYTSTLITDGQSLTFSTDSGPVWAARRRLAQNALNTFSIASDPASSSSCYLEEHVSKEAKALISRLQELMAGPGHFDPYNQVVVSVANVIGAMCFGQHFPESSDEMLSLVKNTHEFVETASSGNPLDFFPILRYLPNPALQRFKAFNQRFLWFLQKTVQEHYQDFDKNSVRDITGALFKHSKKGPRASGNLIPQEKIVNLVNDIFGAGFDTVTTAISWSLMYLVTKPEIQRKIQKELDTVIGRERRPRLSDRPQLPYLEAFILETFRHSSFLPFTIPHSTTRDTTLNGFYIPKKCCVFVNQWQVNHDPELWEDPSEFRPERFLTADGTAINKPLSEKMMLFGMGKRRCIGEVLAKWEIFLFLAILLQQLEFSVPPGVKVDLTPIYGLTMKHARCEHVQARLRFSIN

Canis familiaris [31] = assay: Toxicity in telemeterized dog assessed as effect on hemodynamics at 10 to 30 mg/kg; format: organism-based, Canis lupus familiaris; set-up: dose 10-30 mg/kg; details: in vivo
Rattus norvegicus [32] = assay: Cardiotoxicity in telemeterized rat assessed as change in ECG parameter at 10 to 30 mg/kg; format: toxicity, organism-based; set-up: dose 10-30 mg/kg; details: in vivo
[33] = Cmax in mouse at 3 mg/kg, po; format: ADME, organism-based; set-up: dose 3 mg/kg, route oral; details: in vivo
Rattus norvegicus [34] = assay: Volume of distribution at steady state in Sprague-Dawley rat at 3 mg/kg, po; format: ADME, organism-based; set-up: dose 3 mg/kg, route oral; details: in vivo
Rhesus monkey = assay: Volume of distribution at steady state in monkey at 3 mg/kg, po; format: ADME, organism-based, Macaca mulatta; set-up: dose 3 mg/kg, route oral; details: in vivo
Canis familiaris [35] = assay: Volume of distribution at steady state in dog at 3 mg/kg, po; format: ADME, organism-based, Canis lupus familiaris; set-up: dose 3 mg/kg, route oral; details: in vivo
[36] = Ratio of drug level in brain to plasma in Sprague-Dawley rat at 3 mg/kg, po after 0.75 hrs; format: ADME, organism-based; set-up: dose 3 mg/kg, route oral
[37] = Cmax in dog at 3 mg/kg, po; format: ADME, organism-based, Canis lupus familiaris; set-up: dose 3 mg/kg, route oral; details: in vivo
[38] = Oral bioavailability in dog at 3 mg/kg relative to 2 mg/kg, iv dose; format: ADME, organism-based, Canis lupus familiaris; details: in vivo
Mus musculus [39] = assay: Toxicity in mouse assessed as reduction in locomotor activity at 300 mg/kg by rotarod test; format: organism-based; set-up: dose 300 mg/kg; details: in vivo
[40] = Half life in monkey at 3 mg/kg, po; format: ADME, organism-based, Macaca mulatta; set-up: dose 3 mg/kg, route oral; details: rhesus monkey, in vivo
[41] = AUClast in monkey at 3 mg/kg, po; format: ADME, organism-based, Macaca mulatta; set-up: time 0 - last, dose 3 mg/kg, route oral; details: rhesus monkey, plasma
[42] = AUClast in Sprague-Dawley rat at 10 mg/kg, po; format: ADME, organism-based; set-up: time 0 - last, dose 10 mg/kg, route oral; details: plasma
[43] = Protein binding in dog plasma; format: ADME, cell-free, Canis lupus familiaris; details: read-out: PPB (converted)
[44] = Drug level in Sprague-Dawley rat plasma at 0.3 mg/kg, po after 0.75 hrs; format: ADME, organism-based; set-up: dose 0.3 mg/kg, route oral; details: read-out: Drug uptake
[45] = target: T2, 5-hydroxytryptamine receptor 2C (Homo sapiens, UniProt P28335); format: cell-based, HEK293
T2 sequence (P28335 whole entry): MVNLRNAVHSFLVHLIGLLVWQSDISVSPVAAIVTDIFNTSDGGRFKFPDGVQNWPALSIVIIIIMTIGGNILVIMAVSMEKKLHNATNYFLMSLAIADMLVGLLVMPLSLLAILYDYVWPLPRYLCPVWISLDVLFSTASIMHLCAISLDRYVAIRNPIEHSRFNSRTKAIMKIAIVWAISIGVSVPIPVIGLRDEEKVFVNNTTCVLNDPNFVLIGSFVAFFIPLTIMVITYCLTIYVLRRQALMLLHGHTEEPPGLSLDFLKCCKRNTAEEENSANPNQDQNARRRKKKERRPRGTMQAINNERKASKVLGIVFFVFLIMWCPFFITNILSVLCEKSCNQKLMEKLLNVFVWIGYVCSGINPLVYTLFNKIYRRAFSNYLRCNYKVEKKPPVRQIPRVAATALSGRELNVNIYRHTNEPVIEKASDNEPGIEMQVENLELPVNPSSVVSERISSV

[46] = Cmax in monkey at 3 mg/kg, po; format: ADME, organism-based, Macaca mulatta; set-up: dose 3 mg/kg, route oral; details: rhesus monkey, in vivo
[47] = AUClast in mouse at 3 mg/kg, po; format: ADME, organism-based; set-up: time 0 - last, dose 3 mg/kg, route oral; details: plasma

Sequence of Cytochrome P450 2C19 (P33261 whole entry): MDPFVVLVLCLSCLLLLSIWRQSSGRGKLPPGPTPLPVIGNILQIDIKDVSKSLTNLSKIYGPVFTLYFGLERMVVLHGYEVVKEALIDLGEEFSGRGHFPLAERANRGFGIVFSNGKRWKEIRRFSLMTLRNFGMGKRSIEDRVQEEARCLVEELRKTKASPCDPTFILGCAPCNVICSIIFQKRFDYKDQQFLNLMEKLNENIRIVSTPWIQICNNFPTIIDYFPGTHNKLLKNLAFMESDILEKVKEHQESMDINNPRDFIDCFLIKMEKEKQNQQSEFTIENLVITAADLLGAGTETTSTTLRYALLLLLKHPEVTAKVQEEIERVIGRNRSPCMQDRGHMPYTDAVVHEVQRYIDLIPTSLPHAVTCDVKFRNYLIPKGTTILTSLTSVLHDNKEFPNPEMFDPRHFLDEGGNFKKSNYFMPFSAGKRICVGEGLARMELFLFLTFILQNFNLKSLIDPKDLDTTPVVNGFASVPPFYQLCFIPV
Sequence of 5-hydroxytryptamine receptor 2A (Canis lupus familiaris, UniProt O46635) (O46635 whole entry): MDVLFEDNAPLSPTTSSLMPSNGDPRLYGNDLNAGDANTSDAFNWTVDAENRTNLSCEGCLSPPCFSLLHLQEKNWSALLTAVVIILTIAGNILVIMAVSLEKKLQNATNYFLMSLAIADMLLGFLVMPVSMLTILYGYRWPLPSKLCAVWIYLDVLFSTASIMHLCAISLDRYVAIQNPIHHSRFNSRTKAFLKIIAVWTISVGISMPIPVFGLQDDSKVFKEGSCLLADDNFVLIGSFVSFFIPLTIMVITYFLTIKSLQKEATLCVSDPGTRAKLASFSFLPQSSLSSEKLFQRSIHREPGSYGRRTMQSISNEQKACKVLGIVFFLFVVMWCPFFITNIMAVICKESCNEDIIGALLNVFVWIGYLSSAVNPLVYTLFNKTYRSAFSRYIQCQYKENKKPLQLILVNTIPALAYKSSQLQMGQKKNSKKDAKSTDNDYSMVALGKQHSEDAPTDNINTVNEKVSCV
Sequence of Cytochrome P450 2C9 (P11712 whole entry): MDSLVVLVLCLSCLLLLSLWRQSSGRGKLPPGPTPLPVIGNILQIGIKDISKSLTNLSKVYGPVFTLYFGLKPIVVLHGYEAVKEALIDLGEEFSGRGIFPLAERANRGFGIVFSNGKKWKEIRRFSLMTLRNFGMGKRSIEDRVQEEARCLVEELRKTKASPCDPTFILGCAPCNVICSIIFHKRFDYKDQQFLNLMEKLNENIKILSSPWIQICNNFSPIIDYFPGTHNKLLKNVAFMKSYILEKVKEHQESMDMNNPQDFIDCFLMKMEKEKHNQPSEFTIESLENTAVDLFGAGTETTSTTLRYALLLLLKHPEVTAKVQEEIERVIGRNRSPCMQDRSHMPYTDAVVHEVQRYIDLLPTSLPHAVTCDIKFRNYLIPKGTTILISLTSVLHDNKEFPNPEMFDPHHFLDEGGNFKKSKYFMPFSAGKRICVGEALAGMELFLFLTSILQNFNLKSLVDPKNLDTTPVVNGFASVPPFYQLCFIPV
Sequence of Voltage-gated inwardly rectifying potassium channel KCNH2 (Q12809 whole entry): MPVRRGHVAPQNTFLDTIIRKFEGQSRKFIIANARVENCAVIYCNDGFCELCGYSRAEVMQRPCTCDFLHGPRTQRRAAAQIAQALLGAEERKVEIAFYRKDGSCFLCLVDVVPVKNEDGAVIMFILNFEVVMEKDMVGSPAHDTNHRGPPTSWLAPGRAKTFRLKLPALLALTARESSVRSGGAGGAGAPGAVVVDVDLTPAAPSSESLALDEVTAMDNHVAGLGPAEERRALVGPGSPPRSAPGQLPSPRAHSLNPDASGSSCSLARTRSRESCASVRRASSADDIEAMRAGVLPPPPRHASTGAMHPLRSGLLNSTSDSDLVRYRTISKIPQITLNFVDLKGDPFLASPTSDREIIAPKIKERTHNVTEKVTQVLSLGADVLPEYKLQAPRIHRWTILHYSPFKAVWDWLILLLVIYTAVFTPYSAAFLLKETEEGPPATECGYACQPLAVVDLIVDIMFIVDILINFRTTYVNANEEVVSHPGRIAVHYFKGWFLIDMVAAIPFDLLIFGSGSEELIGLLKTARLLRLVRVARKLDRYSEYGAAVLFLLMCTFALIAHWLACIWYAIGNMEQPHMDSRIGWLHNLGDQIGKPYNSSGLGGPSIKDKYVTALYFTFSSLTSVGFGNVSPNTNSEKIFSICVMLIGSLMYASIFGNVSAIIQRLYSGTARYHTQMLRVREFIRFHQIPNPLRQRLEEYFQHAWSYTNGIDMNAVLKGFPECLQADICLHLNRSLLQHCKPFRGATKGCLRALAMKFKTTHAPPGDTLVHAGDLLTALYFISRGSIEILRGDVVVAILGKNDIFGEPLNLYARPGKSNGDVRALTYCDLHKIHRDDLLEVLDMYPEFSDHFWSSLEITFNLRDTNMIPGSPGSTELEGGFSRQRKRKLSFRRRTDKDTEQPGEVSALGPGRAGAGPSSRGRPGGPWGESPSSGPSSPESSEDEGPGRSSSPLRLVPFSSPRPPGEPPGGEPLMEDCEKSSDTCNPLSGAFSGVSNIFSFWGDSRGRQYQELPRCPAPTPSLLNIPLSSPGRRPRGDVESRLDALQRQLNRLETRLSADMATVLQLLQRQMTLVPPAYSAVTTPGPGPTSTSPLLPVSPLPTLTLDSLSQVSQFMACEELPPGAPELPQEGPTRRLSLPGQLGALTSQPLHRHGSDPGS
Sequence of 5-hydroxytryptamine receptor 2A (Rattus norvegicus, UniProt P14842) (P14842 whole entry): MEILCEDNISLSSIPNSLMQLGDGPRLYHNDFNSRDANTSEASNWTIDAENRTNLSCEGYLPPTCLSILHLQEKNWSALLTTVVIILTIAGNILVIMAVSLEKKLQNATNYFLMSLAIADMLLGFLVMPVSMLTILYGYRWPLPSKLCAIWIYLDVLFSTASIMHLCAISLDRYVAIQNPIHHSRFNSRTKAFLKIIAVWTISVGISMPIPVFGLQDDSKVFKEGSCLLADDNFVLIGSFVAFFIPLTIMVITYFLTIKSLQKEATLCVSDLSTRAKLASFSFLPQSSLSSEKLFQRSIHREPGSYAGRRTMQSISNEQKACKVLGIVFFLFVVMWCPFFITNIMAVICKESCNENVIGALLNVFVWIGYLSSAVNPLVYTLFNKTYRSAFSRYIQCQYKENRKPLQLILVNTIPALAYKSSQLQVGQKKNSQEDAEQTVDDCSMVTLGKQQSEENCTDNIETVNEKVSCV
Sequence of 5-hydroxytryptamine receptor 2A (Macaca mulatta, UniProt P50128) (P50128 whole entry): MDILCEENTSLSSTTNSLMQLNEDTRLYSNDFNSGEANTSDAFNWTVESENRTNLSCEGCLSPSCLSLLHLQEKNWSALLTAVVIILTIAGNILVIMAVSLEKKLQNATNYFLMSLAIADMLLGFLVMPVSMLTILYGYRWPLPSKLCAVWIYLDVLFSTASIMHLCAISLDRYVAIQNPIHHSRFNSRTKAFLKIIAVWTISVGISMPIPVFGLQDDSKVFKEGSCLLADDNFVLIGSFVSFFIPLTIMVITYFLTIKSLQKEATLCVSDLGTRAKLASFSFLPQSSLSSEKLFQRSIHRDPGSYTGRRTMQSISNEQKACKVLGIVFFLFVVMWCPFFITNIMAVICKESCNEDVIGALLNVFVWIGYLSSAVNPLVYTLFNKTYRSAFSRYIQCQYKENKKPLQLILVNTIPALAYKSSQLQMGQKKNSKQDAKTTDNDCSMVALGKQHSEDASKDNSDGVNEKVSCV
Sequence of Cytochrome P450 3A4 (P08684 whole entry): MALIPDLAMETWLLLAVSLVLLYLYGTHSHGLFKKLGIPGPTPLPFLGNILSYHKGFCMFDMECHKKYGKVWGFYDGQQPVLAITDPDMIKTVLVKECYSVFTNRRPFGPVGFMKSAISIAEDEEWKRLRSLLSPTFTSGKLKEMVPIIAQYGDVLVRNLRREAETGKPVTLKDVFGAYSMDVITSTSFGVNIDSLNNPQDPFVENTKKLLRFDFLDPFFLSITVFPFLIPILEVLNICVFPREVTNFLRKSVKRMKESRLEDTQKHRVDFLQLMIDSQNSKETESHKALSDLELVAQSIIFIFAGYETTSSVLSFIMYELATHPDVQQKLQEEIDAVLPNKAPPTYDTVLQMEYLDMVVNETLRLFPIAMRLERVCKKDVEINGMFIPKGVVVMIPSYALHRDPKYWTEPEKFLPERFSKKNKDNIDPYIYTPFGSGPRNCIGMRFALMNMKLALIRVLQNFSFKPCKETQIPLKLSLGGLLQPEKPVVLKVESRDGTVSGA
Sequence of Cytochrome P450 2D6 (P10635 whole entry): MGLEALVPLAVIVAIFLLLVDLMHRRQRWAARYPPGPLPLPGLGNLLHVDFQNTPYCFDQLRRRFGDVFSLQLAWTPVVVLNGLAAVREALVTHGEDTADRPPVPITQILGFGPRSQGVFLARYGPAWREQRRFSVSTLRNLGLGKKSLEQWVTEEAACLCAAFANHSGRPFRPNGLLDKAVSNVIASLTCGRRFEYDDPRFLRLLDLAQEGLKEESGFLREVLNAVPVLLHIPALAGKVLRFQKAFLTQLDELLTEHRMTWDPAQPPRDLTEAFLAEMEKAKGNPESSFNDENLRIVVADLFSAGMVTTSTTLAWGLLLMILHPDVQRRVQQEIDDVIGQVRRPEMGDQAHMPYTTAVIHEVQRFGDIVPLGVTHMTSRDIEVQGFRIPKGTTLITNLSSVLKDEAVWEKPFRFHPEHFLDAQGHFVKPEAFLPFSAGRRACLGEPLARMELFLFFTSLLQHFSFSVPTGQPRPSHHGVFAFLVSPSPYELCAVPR
Sequence of 5-hydroxytryptamine receptor 2A (Homo sapiens, UniProt P28223) (P28223 whole entry): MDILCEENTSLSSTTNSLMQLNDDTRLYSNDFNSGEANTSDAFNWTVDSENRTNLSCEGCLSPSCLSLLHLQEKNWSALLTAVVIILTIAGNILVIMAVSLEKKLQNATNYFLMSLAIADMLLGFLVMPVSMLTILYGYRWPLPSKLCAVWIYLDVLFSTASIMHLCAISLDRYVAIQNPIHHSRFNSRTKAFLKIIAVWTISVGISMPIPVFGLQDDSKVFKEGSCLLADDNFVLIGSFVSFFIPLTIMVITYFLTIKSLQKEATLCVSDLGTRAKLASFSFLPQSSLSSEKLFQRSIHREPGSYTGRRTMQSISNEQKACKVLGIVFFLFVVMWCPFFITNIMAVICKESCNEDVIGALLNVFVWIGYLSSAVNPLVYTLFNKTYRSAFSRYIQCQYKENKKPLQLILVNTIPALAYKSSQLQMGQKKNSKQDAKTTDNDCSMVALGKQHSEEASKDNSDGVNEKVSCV

Cn1cc(Cl)c(C(=O)N2CCN(CC(=O)c3ccc(F)cc3)CC2)n1
clearance [1]: 15 mL/min/kg | Cmax [2]: 1040 ng/mL | MTD [3]: 300 mg/kg | Ki [4]: 2.7 nM | fraction unbound [5]: 0.49 | bioavailability [6]: 26% | inhibition (INH) (Cytochrome P450 2C19): Not Active | Kp at 0.75 h [7]: 1.18 | bioavailability [8]: 67% | half-life [9]: 312 min | inhibition (INH) (Cytochrome P450 2C9): Not Active | inhibition (INH) (Cytochrome P450 3A4): Not Active | IC50 [10]: 30 µM | inhibition (Rattus norvegicus [11]): Active | Vdss (Mus musculus [12]): 1.7 L/kg | Activity (Rattus norvegicus [13]): Dose-dependent effect | half-life [14]: 120 min | Activity (Rattus norvegicus [15]): Active | clearance [16]: 93.3 mL/min/kg | half-life [17]: 30 min | Ki [18]: 1.7 nM | inhibition (INH) (Cytochrome P450 2D6): Not Active | bioavailability [19]: 87% | concentration at 0.75 h [20]: 23.3 ng/mL | AUC(0-t) [21]: 2940 ng·h/mL | Ki [22]: 3.7 nM | clearance [23]: 15 mL/min/kg | Activity (Canis familiaris [24]): Non-toxic | Ki [25]: 2.4 nM | Activity (Rattus norvegicus [26]): Active | Activity (Rattus norvegicus [27]): Non-toxic | Activity (Rattus norvegicus [28]): Toxic | MTD [29]: 300 mg/kg | clearance [30]: 93.3 mL/min/kg | inhibition (INH) (Cytochrome P450 1A2): Not Active | Activity (Canis familiaris [31]): Non-toxic | Activity (Rattus norvegicus [32]): Non-toxic | Cmax [33]: 718 ng/mL | Vdss (Rattus norvegicus [34]): 1.7 L/kg | Vdss (Rhesus monkey): 0.4 L/kg | Vdss (Canis familiaris [35]): 1.9 L/kg | Kp at 0.75 h [36]: 1.18 | Cmax [37]: 1260 ng/mL | bioavailability [38]: 94% | Activity (Mus musculus [39]): Toxic | half-life [40]: 36 min | AUC(0-t) [41]: 872 ng·h/mL | AUC(0-t) [42]: 1180 ng·h/mL | fraction unbound [43]: 0.39 | concentration at 0.75 h [44]: 19.6 ng/mL | Ki [45]: 1410 nM | Cmax [46]: 600 ng/mL | AUC(0-t) [47]: 459 ng·h/mL
